Results: the NIST ThermoML archive (doi:10.1016/j.jct.2010.12.028)
Numbers after ± are expanded uncertainties.

Conditions: 298.15 K, 101.33 kPa, Liquid; for speed of sound: Sing-around technique in a fixed-path interferometer; for mass density: Vibrating tube method

| Compound | speed of sound [m/s] | mass density [kg/m3] |
| --- | --- | --- |
| Cc1ccccc1N [2-methylaniline] | 1602.6 ± 2.4 | 994.351 ± 0.24 |
| Cc1ccccn1 [2-methylpyridine] | 1380.1 ± 2.9 | 939.802 ± 0.77 |
| Cc1cccnc1 [3-methylpyridine] | 1424 ± 2.3 | 952.002 ± 0.24 |
| Cc1ccncc1 [4-methylpyridine] | 1431.5 ± 2.3 | 950.179 ± 0.24 |
| c1ccncc1 [pyridine] | 1417.8 ± 2.3 | 978.249 ± 0.24 |
